From patent US20240279278A1, “NMU RECEPTOR 2 AGONISTS” (Boehringer Ingelheim International GmbH, priority 2023, published 2024)
Converted amounts (≈) assume the structure as drawn. Residues, ends and D or L forms follow the SMILES beside them.

Tests used:
human NMUR2 receptor = human NMUR2 receptor (Homo sapiens, UniProt Q9GZQ4); test: Radioligand binding competition assay (RLB), human NMUR2 receptor binding (SPA, [125I]-Neuromedin U-25); set-up: host or cells: CHO-K1; details: CHO-K1 hNMUR2 cell membranes, 4 hours at RT
From the text: Example 1: Radioligand Binding Competition Assay (RLB) Human NMUR2 Receptor Binding
The test is based on membranes prepared from a Human NMUR2/Apoaequorin Stable Cell Line (Creative Biogene, Cat. No. CSC-RG1309).
Cell Line Description: CHO-NMUR2 cell line is clonally derived from a CHO-K1 cell line, which has been transfected with a bicistronic expression plasmid containing the sequence coding for the human neuromedin U receptor 2 (AF242874.1). MOSAIC-ID: CL16550616.
Membrane preparation: Cells were broken by nitrogen cavitation (900 psi, 1 hour). Intact cells were removed by centrifugation (400 rcf (relative centrifugal force), 10 minutes, 4° C.) before the crude membrane fraction was collected by ultracentrifugation (20.000 rcf, 1 hour, 4° C.).
2) Human NMUR2 Receptor Binding Assay (Radioligand: [125I]-Neuromedin U-25 (Human))
In this Scintillation Proximity Assay (SPA) design, the membranes immobilize directly to the PVT-WGA-PEI type A beads (polyethyleneimine treated polyvinyltoluene beads coupled to wheatgerm agglutinin, Perkin Elmer) via interactions of wheat germ agglutinate and glycosylated membrane structures. Thereby the radioactively la-belled ligand, bound to NMUR2 receptors on the membrane, comes in close proximity to the solid scintillator of the PVT bead. Radioactive human neuromedin U-25 then stimulates the scintillant to emit light. In contrast, radioligand not bound to the receptor is too distant from the bead to elicit a signal.
For the Scintillation Proximity Assay the CHO-K1 hNMUR2 cell membranes and SPA-beads are diluted to concentrations, which assure a robust signal to background ratio. The SPA incubation buffer consists of 25 mM Hepes (pH=7.0), 5 mM MgCl2, 1 mM CaCl2, 10 ug/mL Saponine and 0.1% bovine serum albumin and is used for all dilutions.
Final assay setup in 96-well plate: 20 μL of 10× test compound dilutions+40 μL of 5× [125l]-Neuromedin U-25 (1× approx. 30 pM; 2000 μCi/mmol)+60 μL membrane dilution (approx. 2.5 μg membrane protein)+80 μL SPA bead dilution (0.75 mg).
The assay is incubated for 4 hours at RT, including controls for specific binding where no displacer is added and non-specific binding by adding unlabeled hNMU-25 at 100 nM. Bound radioactivity is determined by scintillation counting (MicroBeta Trilux 1450, Perkin Elmer, detection of 125I decay). […] The system assumes one binding site with no relevant radioligand depletion (<10%) and that the binding is reversible and at equilibrium.

human NMUR1 receptor = target: T1, human NMUR1 receptor (Homo sapiens, UniProt Q9HB89); test: Radioligand binding competition assay (RLB), human NMUR1 receptor binding (SPA, [125I]-Neuromedin U-25); details: CHO-K1 hNMUR1 cell membranes, 4 hours at RT
T1 construct: host or cells: CHO-K1
T1 sequence (Q9HB89 24-426 limits assumed): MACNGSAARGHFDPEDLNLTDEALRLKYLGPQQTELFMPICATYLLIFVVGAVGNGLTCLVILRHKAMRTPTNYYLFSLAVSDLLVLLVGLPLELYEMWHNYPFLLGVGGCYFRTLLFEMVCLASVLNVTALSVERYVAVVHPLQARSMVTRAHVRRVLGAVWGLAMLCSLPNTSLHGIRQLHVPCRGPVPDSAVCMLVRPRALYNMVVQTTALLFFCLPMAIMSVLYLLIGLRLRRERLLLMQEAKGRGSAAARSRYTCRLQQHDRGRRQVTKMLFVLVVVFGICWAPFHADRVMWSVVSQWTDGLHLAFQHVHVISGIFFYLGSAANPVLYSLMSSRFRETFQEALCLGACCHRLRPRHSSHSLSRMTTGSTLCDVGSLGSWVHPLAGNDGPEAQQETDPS
From the text: Example 2: Radioligand Binding Competition Assay (RLB) Human NMUR1 Receptor Binding 1) Membranes The test is based on membranes prepared from a human NMUR1/Apoaequorin Stable Cell Line (Creative Biogene, Cat. No. CSC-RG1308). Cell Line Description: CHO-NMUR1 cell line is clonally-derived from a CHO-K1 cell line, which has been transfected with a bicistronic expression plasmid containing the sequence coding for the human neuromedin U receptor 1 (NM_006056.4, 180 to 1391). Mosaic-ID: CL16550614 Membrane preparation: Cells were broken by nitrogen cavitation (900 psi, 1 hour). Intact cells were removed by centrifugation (400 rcf, 10 minutes, 4° C.) before the crude membrane fraction was collected by ultracentrifugation (20.000 rcf, 1 hour, 4° C.). 2) Human NMUR1 Receptor Binding Assay (Radioligand: [125l]-Neuromedin U-25) In this Scintillation Proximity Assay (SPA) design, the membranes immobilize directly to the PVT-WGA-PEI type A beads (polyethyleneimine treated polyvinyltoluene beads coupled to wheatgerm agglutinin, Perkin Elmer) via interactions of wheat germ agglutinate and glycosylated membrane structures. Thereby the radioactively la-belled ligand, bound to NMUR1 receptors on the membrane, comes in close proximity to the solid scintillator of the PVT bead. Radioactive human neuromedin U-25 then stimulates the scintillant to emit light. In contrast, radioligand not bound to the receptor is too distant from the bead to elicit a signal. For the Scintillation Proximity Assay the CHO-K1 hNMUR1 cell membranes and SPA-beads are diluted to concentrations, which assure a robust signal to background ratio. The SPA incubation buffer consists of 25 mM Hepes (pH=7.0), 5 mM MgCl2, 1 mM CaCl2, 10 ug/mL Saponine and 0.1% bovine serum albumin and is used for all dilutions. Final assay setup in 96-well plate: 20 μL of 10× test compound dilutions+40 μL of 5× [125l]-Neuromedin U-25 (1× approx. 30 pM; 2000 μCi/mmol (μCi=microcurie))+60 μL membrane dilution (approx. 1.0 μg membrane protein)+80 μL SPA bead dilution (250 μg). The assay is incubated for 4 hours at RT, including controls for specific binding where no displacer is added and non-specific binding by adding unlabeled hNMU-25 at 100 nM. Bound radioactivity is determined by scintillation counting (MicroBeta Trilux 1450, Perkin Elmer, detection of 125I decay). […] The system assumes one binding site with no relevant radioligand depletion (<10%) and that the binding is reversible and at equilibrium. [formula] [formula]

physchem = format: physicochemical
Procedure: Example 6: Solubility Determination
Peptides (as TFA-salts) were weighed out in a filter unit (Mini-UniPrep Syringeless Filter 0.45 μm, Whatman PVDF), and 0.1 M phosphate buffer at pH 6 to 8 was added to achieve 10 mg/mL final peptide concentration. The peptides were dissolved by shaking the filter units horizontally at 350 rpm for 2 hours at room temperature. Samples were then filtered to remove any insoluble particles. Controls were prepared by weighing out the corresponding peptide solid material and dissolving it in an appropriate vehicle (e.g. buffer or DMSO) to a final concentration of 1 mg/mL. Both, the control and sample were analyzed by reversed phase chromatography. The area under the peak of the sample was compared to the control and the solubility was calculated based on that ratio. The pH was measured and recorded for each sample.

Chain of human NMUR2 receptor (Q9GZQ4 whole entry): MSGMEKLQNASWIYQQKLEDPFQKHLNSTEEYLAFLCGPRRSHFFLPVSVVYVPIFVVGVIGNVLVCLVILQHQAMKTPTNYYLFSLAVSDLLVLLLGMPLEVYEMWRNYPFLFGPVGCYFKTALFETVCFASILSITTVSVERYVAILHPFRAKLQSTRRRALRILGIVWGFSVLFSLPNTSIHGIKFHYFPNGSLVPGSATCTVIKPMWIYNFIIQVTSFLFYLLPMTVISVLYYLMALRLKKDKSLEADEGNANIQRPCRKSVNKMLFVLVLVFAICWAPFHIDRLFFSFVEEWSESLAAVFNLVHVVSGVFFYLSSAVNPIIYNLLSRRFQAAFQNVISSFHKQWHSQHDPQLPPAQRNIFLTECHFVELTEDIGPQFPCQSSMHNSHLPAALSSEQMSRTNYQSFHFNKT

Row | solubility at 2 h (physchem; pH 7.2) [µg/mL] | Compound | Ki (human NMUR2 receptor) [nM] | Ki (human NMUR1 receptor) [nM] | solubility at 2 h (physchem; pH 7.3) [µg/mL]
1 |  | CCCC[C@H](NC(=O)[C@H](CC(C)C)N(C)C(=O)[C@H](Cc1ccccc1)NC(=O)[C@H](Cc1ccc(O)cc1)NC(=O)CN1CCN(CCNC(=O)CN(C)C(=O)CN(C)C(=O)CN(C)C(=O)CN(C)C(=O)CN(C)C(=O)CN(C)C(=O)CN(C)C(=O)CN(C)C(=O)CN(C)C(=O)CN(C)C(=O)CN(C)C(=O)CN(C)C(=O)CN(C)C(=O)CN(C)C(=O)CN(C)C(=O)CC[C@H](NC(=O)CC[C@H](NC(=O)CC[C@H](NC(=O)CCCCCCCCCCCCCCCCC(=O)O)C(=O)O)C(=O)O)C(=O)O)CC1)C(=O)N[C@@H](CCCN)C(=O)N1CCC[C@H]1C(=O)N[C@@H](CCCNC(=N)N)C(=O)NCC(N)=O [Compound 21, C18DA-gGlu3-Sar15-AEPipAc-Tyr-Phe-NMeLeu-Nle-Orn-Pro-Arg-Gly-NH2] (HELM PEPTIDE1{[O=C(O)CCCCCCCCCCCCCCCCC(=O)[*:2]].[gGlu].[gGlu].[gGlu].[Sar].[Sar].[Sar].[Sar].[Sar].[Sar].[Sar].[Sar].[Sar].[Sar].[Sar].[Sar].[Sar].[Sar].[Sar].[O=C(CN1CCN(CCN[*:1])CC1)[*:2]].Y.F.[meL].[Nle].[Orn].P.R.G.[am]}$$$$V2.0) | 55.9 | > 10000 | 7500 (≈ 2.58 mM)
2 |  | CCCC[C@H](NC(=O)[C@H](CC(C)C)N(C)C(=O)[C@H](Cc1ccccc1)NC(=O)[C@H](Cc1ccc(O)cc1)NC(=O)CN1CCN(CCNC(=O)CN(C)C(=O)CN(C)C(=O)CN(C)C(=O)CN(C)C(=O)CN(C)C(=O)CN(C)C(=O)CN(C)C(=O)CN(C)C(=O)CN(C)C(=O)CN(C)C(=O)CN(C)C(=O)CN(C)C(=O)CN(C)C(=O)CN(C)C(=O)CN(C)C(=O)CC[C@H](NC(=O)CC[C@H](NC(=O)CC[C@H](NC(=O)CCCCCCCCCCCCCCCCC(=O)O)C(=O)O)C(=O)O)C(=O)O)CC1)C(=O)N[C@@H](CCCN)C(=O)N(C)[C@@H](C)C(=O)N[C@@H](CCCNC(=N)N)C(=O)NCC(N)=O [Compound 22, C18DA-gGlu3-Sar15-AEPipAc-Tyr-Phe-NMeLeu-Nle-Orn-NMeAla-Arg-Gly-NH2] (HELM PEPTIDE1{[O=C(O)CCCCCCCCCCCCCCCCC(=O)[*:2]].[gGlu].[gGlu].[gGlu].[Sar].[Sar].[Sar].[Sar].[Sar].[Sar].[Sar].[Sar].[Sar].[Sar].[Sar].[Sar].[Sar].[Sar].[Sar].[O=C(CN1CCN(CCN[*:1])CC1)[*:2]].Y.F.[meL].[Nle].[Orn].[meA].R.G.[am]}$$$$V2.0) | 45.8 | > 10000 | 8600 (≈ 2.97 mM)
3 |  | CCCC[C@H](NC(=O)[C@H](CC(C)C)N(C)C(=O)[C@H](Cc1ccccc1)NC(=O)[C@H](Cc1ccc(O)cc1)NC(=O)CN1CCN(CCNC(=O)CN(C)C(=O)CN(C)C(=O)CN(C)C(=O)CN(C)C(=O)CN(C)C(=O)CN(C)C(=O)CN(C)C(=O)CN(C)C(=O)CN(C)C(=O)CN(C)C(=O)CN(C)C(=O)CN(C)C(=O)CN(C)C(=O)CN(C)C(=O)CN(C)C(=O)CC[C@H](NC(=O)CC[C@H](NC(=O)CC[C@H](NC(=O)CCCCCCCCCCCCCCCCC(=O)O)C(=O)O)C(=O)O)C(=O)O)CC1)C(=O)N[C@@H](CCN)C(=O)N(C)[C@@H](C)C(=O)N[C@@H](CCCNC(=N)N)C(=O)NCC(N)=O [Compound 23, C18DA-gGlu3-Sar15-AEPipAc-Tyr-Phe-NMeLeu-Nle-Dbu-NMeAla-Arg-Gly-NH2] (HELM PEPTIDE1{[O=C(O)CCCCCCCCCCCCCCCCC(=O)[*:2]].[gGlu].[gGlu].[gGlu].[Sar].[Sar].[Sar].[Sar].[Sar].[Sar].[Sar].[Sar].[Sar].[Sar].[Sar].[Sar].[Sar].[Sar].[Sar].[O=C(CN1CCN(CCN[*:1])CC1)[*:2]].Y.F.[meL].[Nle].[Dab].[meA].R.G.[am]}$$$$V2.0) | 38.8 | > 10000 | 8900 (≈ 3.08 mM)
4 |  | CCCC[C@H](NC(=O)[C@H](CC(C)C)N(C)C(=O)[C@H](Cc1ccccc1)NC(=O)[C@H](Cc1ccc(O)cc1)NC(=O)CN1CCN(CCNC(=O)CN(C)C(=O)CN(C)C(=O)CN(C)C(=O)CN(C)C(=O)CN(C)C(=O)CN(C)C(=O)CN(C)C(=O)CN(C)C(=O)CN(C)C(=O)CC[C@H](NC(=O)CC[C@H](NC(=O)CC[C@H](NC(=O)CCCCCCCCCCCCCCCCC(=O)O)C(=O)O)C(=O)O)C(=O)O)CC1)C(=O)N[C@@H](CCN)C(=O)N1CCC[C@H]1C(=O)N[C@@H](CCCNC(=N)N)C(=O)NCC(N)=O [Compound 24, C18DA-gGlu3-Sar9-AEPipAc-Tyr-Phe-NMeLeu-Nle-Dbu-Pro-Arg-Gly-NH2] (HELM PEPTIDE1{[O=C(O)CCCCCCCCCCCCCCCCC(=O)[*:2]].[gGlu].[gGlu].[gGlu].[Sar].[Sar].[Sar].[Sar].[Sar].[Sar].[Sar].[Sar].[Sar].[O=C(CN1CCN(CCN[*:1])CC1)[*:2]].Y.F.[meL].[Nle].[Dab].P.R.G.[am]}$$$$V2.0) | 52.3 | > 10000 | 9500 (≈ 3.84 mM)
5 | 10000 (≈ 3.65 mM) | CCCC[C@H](NC(=O)[C@H](CC(C)C)N(C)C(=O)[C@H](Cc1ccccc1)NC(=O)[C@H](Cc1ccc(O)cc1)NC(=O)CN1CCN(CCNC(=O)CN(C)C(=O)CN(C)C(=O)CN(C)C(=O)CN(C)C(=O)CN(C)C(=O)CN(C)C(=O)CN(C)C(=O)CN(C)C(=O)CN(C)C(=O)CN(C)C(=O)CN(C)C(=O)CN(C)C(=O)CC[C@H](NC(=O)CC[C@H](NC(=O)CC[C@H](NC(=O)CCCCCCCCCCCCCCCCC(=O)O)C(=O)O)C(=O)O)C(=O)O)CC1)C(=O)N[C@@H](CCCNC(=N)N)C(=O)N1CCC[C@H]1C(=O)N[C@@H](CCCNC(=N)N)C(=O)NCC(N)=O [Compound 25, C18DA-gGlu3-Sar12-AEPipAc-Tyr-Phe-NMeLeu-Nle-Arg-Pro-Arg-Gly-NH2] | 23.1 | > 10000 | 
